Results reported in PubChem BioAssay AID248 (DTP/NCI, 2004).
Several values for one entry are separate records, joined by “and”; a condition that tells them apart may be missing. Identical values can stand only once. Toxic doses and inconclusive results are not listed. No stated cut-off is given here; in the data, active means T/C of 150% or more; inactive means T/C below 125%.

Tested on: L1210 leukemia ip in BDF1 mice, survival T/C
Assay: NCI In Vivo Anticancer Drug Screen. Data for tumor model L1210 Leukemia (intraperitoneal) in B6D2F1 (BDF1) mice
Details: endpoint: mean survival time, higher = longer survival
In short: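 Survival endpoint. Drug-treated group vs vehicle group, expressed as T divided by C. Tumor passaged by transplantation.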

[1] = dose: 100.0 mg/kg/injection, schedule: Q01DX001 (ip), vehicle: saline with Tween-80
[2] = dose: 100.0 mg/kg/injection, schedule: Q01DX009 (ip), vehicle: saline with Tween-80
[3] = dose: 100.0 mg/kg/injection, schedule: Q04DX002 (ip), vehicle: saline with Tween-80
[4] = dose: 100.0 mg/kg/injection, schedule: Q04DX003 (ip), vehicle: saline with Tween-80
[5] = dose: 200.0 mg/kg/injection, schedule: Q01DX001 (ip), vehicle: saline with Tween-80
[6] = dose: 200.0 mg/kg/injection, schedule: Q01DX009 (ip), vehicle: saline with Tween-80
[7] = dose: 200.0 mg/kg/injection, schedule: Q04DX003 (ip), vehicle: saline with Tween-80
[8] = dose: 400.0 mg/kg/injection, schedule: Q01DX009 (ip), vehicle: saline with Tween-80
[9] = dose: 400.0 mg/kg/injection, schedule: Q04DX003 (ip), vehicle: saline with Tween-80
[10] = dose: 100.0 mg/kg/injection, schedule: Q04DX003 (ip), vehicle: Klucel (hydroxypropylcellulose) (HPC)
[11] = dose: 200.0 mg/kg/injection, schedule: Q04DX003 (ip), vehicle: Klucel (hydroxypropylcellulose) (HPC)
[12] = dose: 400.0 mg/kg/injection, schedule: Q04DX003 (ip), vehicle: Klucel (hydroxypropylcellulose) (HPC)
[13] = dose: 75.0 mg/kg/injection, schedule: Q04DX003 (ip), vehicle: saline
[14] = dose: 300.0 mg/kg/injection, schedule: Q04DX003 (ip), vehicle: saline
[15] = dose: 100.0 mg/kg/injection, schedule: Q04DX003 (ip), vehicle: saline
[16] = dose: 200.0 mg/kg/injection, schedule: Q04DX003 (ip), vehicle: saline
[17] = dose: 100.0 mg/kg/injection, schedule: Q01DX001 (ip), vehicle: saline
[18] = dose: 100.0 mg/kg/injection, schedule: Q01DX009 (ip), vehicle: saline
[19] = dose: 200.0 mg/kg/injection, schedule: Q01DX009 (ip), vehicle: saline
[20] = dose: 50.0 mg/kg/injection, schedule: Q01DX009 (ip), vehicle: saline

Measured: T/C

CCOC(=O)c1ccc(N2C(C#N)c3ccccc3OC2c2ccccc2O)cc1 (centres undefined)
inactive: [1] 91 % of control | [2] 93 % of control and 106 % of control | [3] 95 % of control and 92 % of control | [4] 90 % of control | [5] 88 % of control | [6] 94 % of control and 90 % of control | dose: 200.0 mg/kg/injection, schedule: Q04DX002 (ip), vehicle: saline with Tween-80 95 % of control and 97 % of control | [7] 97 % of control | dose: 400.0 mg/kg/injection, schedule: Q01DX001 (ip), vehicle: saline with Tween-80 88 % of control | [8] 94 % of control and 87 % of control | dose: 400.0 mg/kg/injection, schedule: Q04DX002 (ip), vehicle: saline with Tween-80 95 % of control and 100 % of control | [9] 89 % of control

c1ccc(-c2nnc(-c3ccccn3)s2)nc1
inactive: dose: 50.0 mg/kg/injection, schedule: Q01DX001 (ip), vehicle: water 108 % of control | dose: 100.0 mg/kg/injection, schedule: Q01DX001 (ip), vehicle: water 103 % of control | dose: 200.0 mg/kg/injection, schedule: Q01DX001 (ip), vehicle: water 106 % of control | dose: 400.0 mg/kg/injection, schedule: Q01DX001 (ip), vehicle: water 111 % of control

COc1ccc(CC(=O)c2ccccc2)cc1
inactive: dose: 100.0 mg/kg/injection, schedule: Q04DX002 (ip), vehicle: saline 92 % of control | dose: 200.0 mg/kg/injection, schedule: Q04DX002 (ip), vehicle: saline 95 % of control | dose: 400.0 mg/kg/injection, schedule: Q04DX002 (ip), vehicle: saline 104 % of control

COc1ccc(CN(N=O)c2ccc(C(=O)O)cc2)cc1
inactive: [2] 91 % of control | [4] 110 % of control | [6] 90 % of control | [7] 104 % of control | [9] 105 % of control

CCOc1ccccc1C=C(C#N)C#N
inactive: [3] 100 % of control

NC(=O)NNC(=O)c1ccccc1
inactive: dose: 100.0 mg/kg/injection, schedule: Q01DX009 (ip), vehicle: Klucel (hydroxypropylcellulose) (HPC) 100 % of control | [10] 96 % of control | dose: 200.0 mg/kg/injection, schedule: Q01DX009 (ip), vehicle: Klucel (hydroxypropylcellulose) (HPC) 104 % of control | [11] 94 % of control | dose: 400.0 mg/kg/injection, schedule: Q01DX009 (ip), vehicle: Klucel (hydroxypropylcellulose) (HPC) 98 % of control | [12] 100 % of control

CCOc1ccc(/C=N/NC(=S)NC23CC4CC(CC(C4)C2)C3)cc1OCC
inactive: dose: 75.0 mg/kg/injection, schedule: Q01DX001 (ip), vehicle: saline 94 % of control | dose: 150.0 mg/kg/injection, schedule: Q01DX001 (ip), vehicle: saline 95 % of control | dose: 300.0 mg/kg/injection, schedule: Q01DX001 (ip), vehicle: saline 94 % of control

O=C(CC=C(c1ccccc1)c1ccccc1)Nc1ccccc1
inactive: [1] 90 % of control | [5] 87 % of control

O=C1c2c(ccc3ccccc23)CCC1Br (centres undefined)
inactive: [10] 97 % of control | [11] 101 % of control | [12] 103 % of control

O=C(/C=C\c1ccccc1)N1CCc2ccccc2C1
inactive: [13] 100 % of control | [14] 101 % of control

NC(c1ccccc1)C(C(=O)O)C(=O)O (centres undefined)
inactive: [13] 95 % of control | dose: 150.0 mg/kg/injection, schedule: Q04DX003 (ip), vehicle: saline 94 % of control | [14] 95 % of control

O=C1CCC(N2C(=O)C3C(C2=O)C2(Cl)C(Cl)=C(Cl)C3(Cl)C2(Cl)Cl)C(=O)N1 (centres undefined)
inactive: [15] 94 % of control | [16] 97 % of control

COc1ccc(C2CCc3cc(OC)c(OC)cc3C2=O)cc1OC (centres undefined)
inactive: dose: 20.0 mg/kg/injection, schedule: Q01DX009 (ip), vehicle: saline with Tween-80 93 % of control | dose: 40.0 mg/kg/injection, schedule: Q01DX009 (ip), vehicle: saline with Tween-80 94 % of control | dose: 80.0 mg/kg/injection, schedule: Q01DX009 (ip), vehicle: saline with Tween-80 90 % of control | dose: 120.0 mg/kg/injection, schedule: Q01DX009 (ip), vehicle: saline with Tween-80 93 % of control | dose: 120.0 mg/kg/injection, schedule: Q01DX009 (ip), vehicle: saline 107 % of control | dose: 240.0 mg/kg/injection, schedule: Q01DX009 (ip), vehicle: saline with Tween-80 96 % of control | dose: 240.0 mg/kg/injection, schedule: Q01DX009 (ip), vehicle: saline 96 % of control | dose: 360.0 mg/kg/injection, schedule: Q01DX009 (ip), vehicle: saline 93 % of control | dose: 545.0 mg/kg/injection, schedule: Q01DX009 (ip), vehicle: saline 91 % of control

O=NN(CCCl)C(=O)N[C@H]1CCC[C@@H](C(=O)O)C1
active: dose: 18.0 mg/kg/injection, schedule: Q01DX001 (ip), vehicle: Klucel (hydroxypropylcellulose) (HPC) 353 % of control | dose: 26.0 mg/kg/injection, schedule: Q01DX001 (ip), vehicle: Klucel (hydroxypropylcellulose) (HPC) 426 % of control | dose: 40.0 mg/kg/injection, schedule: Q01DX001 (ip), vehicle: Klucel (hydroxypropylcellulose) (HPC) 275 % of control | dose: 60.0 mg/kg/injection, schedule: Q01DX001 (ip), vehicle: Klucel (hydroxypropylcellulose) (HPC) 216 % of control

NCCCN1CCN(CCCN)CC1
inactive: [17] 98 % of control | [18] 94 % of control and 103 % of control | [15] 97 % of control | dose: 200.0 mg/kg/injection, schedule: Q01DX001 (ip), vehicle: saline 90 % of control | [19] 94 % of control and 97 % of control | [16] 96 % of control | dose: 400.0 mg/kg/injection, schedule: Q01DX001 (ip), vehicle: saline 95 % of control | dose: 400.0 mg/kg/injection, schedule: Q01DX009 (ip), vehicle: saline 100 % of control and 88 % of control | dose: 400.0 mg/kg/injection, schedule: Q04DX003 (ip), vehicle: saline 92 % of control

O=C(Oc1ccc(S(=O)(=O)F)cc1Cl)c1ccc([N+](=O)[O-])cc1
inactive: dose: 100.0 mg/kg/injection, schedule: Q04DX002 (ip), vehicle: Klucel (hydroxypropylcellulose) (HPC) 118 % of control | dose: 200.0 mg/kg/injection, schedule: Q04DX002 (ip), vehicle: Klucel (hydroxypropylcellulose) (HPC) 96 % of control | dose: 400.0 mg/kg/injection, schedule: Q04DX002 (ip), vehicle: Klucel (hydroxypropylcellulose) (HPC) 96 % of control

CCCCCCCCCCCC(=O)N(C)CC(=O)O
inactive: [17] 96 % of control

CP1(=O)CC2OC2C1 (centres undefined)
inactive: [20] 96 % of control | [18] 89 % of control | [19] 93 % of control

CCCCCCCCCCCCCCCC(CCCCCCCC)CCCCCCCC
inactive: dose: 75.0 mg/kg/injection, schedule: Q01DX001 (ip), vehicle: saline with Tween-80 97 % of control | dose: 150.0 mg/kg/injection, schedule: Q01DX001 (ip), vehicle: saline with Tween-80 110 % of control | dose: 300.0 mg/kg/injection, schedule: Q01DX001 (ip), vehicle: saline with Tween-80 95 % of control

Cn1cnc2cc(Cl)ccc21
inactive: [20] 101 % of control | [18] 104 % of control | [19] 97 % of control

CCCCCCCCC/C(=N\Nc1ccc([N+](=O)[O-])cc1[N+](=O)[O-])c1ccccc1
inactive: dose: 100.0 mg/kg/injection, schedule: Q04DX003 (ip), vehicle: saline sonified 108 % of control | dose: 200.0 mg/kg/injection, schedule: Q04DX003 (ip), vehicle: saline sonified 98 % of control | dose: 400.0 mg/kg/injection, schedule: Q04DX003 (ip), vehicle: saline sonified 108 % of control

CN(C)C(=O)c1ccccc1Cl
inactive: dose: 100.0 mg/kg/injection, schedule: Q04DX003 (ip), vehicle: acetone 92 % of control | dose: 200.0 mg/kg/injection, schedule: Q04DX003 (ip), vehicle: acetone 94 % of control | dose: 400.0 mg/kg/injection, schedule: Q04DX003 (ip), vehicle: acetone 105 % of control

CCCCCCCCCCCC(=O)CC
inactive: dose: 50.0 mg/kg/injection, schedule: Q01DX009 (ip), vehicle: saline with Tween-80 96 % of control | [2] 100 % of control | [4] 98 % of control | [6] 92 % of control and 93 % of control | [7] 103 % of control | [8] 94 % of control | [9] 98 % of control
